In patent publication US4303664A, “Novel penicillin derivatives containing a coumarin nucleus and medicines containing the same” (Teijin Limited, priority 1978, dated 1981):
≈ marks a conversion by molar mass, not a printed value.

Legend:
[1] = tested on: Klebsiella neumoniae ATCC10031; assay: Bactericidal test (MIC), Klebsiella neumoniae ATCC10031; assay type: cell-based; conditions: (6) Klebsiella neumoniae ATCC10031; read-out: MIC
Source text: (§1) Results of bactericidal tests (MIC, r/ml) on the penicillin derivatives of this invention prepared in the above examples are shown in the following table.

[2] = tested on: Pseudomonas aeruginosa IFO-3080; assay: Bactericidal test (MIC), Pseudomonas aeruginosa IFO-3080; assay type: cell-based; conditions: IFO3080; (12) Pseudomonas aeruginosa IFO-3080; read-out: MIC
Source text: as §1

[3] = tested on: Staphylococcus aureus 209-p; assay: Bactericidal test (MIC), Staphylococcus aureus 209-p; assay type: cell-based; conditions: (1) Staphylococcus aureus 209-p
Source text: as §1

[4] = Rates of protein fixation (human serum protein); assay type: in vitro ADME; conditions: read-out: Rate of protein fixation (converted)
Source text: Rates of protein fixation (human serum protein) of the penicillin derivatives of this invention are illustrated as follows: […]

[5] = Acute toxicity values [(LD50), mouse]; conditions: in vivo
Source text: Acute toxicity values [(LD50), mouse] of some penicillin derivatives of this invention are illustrated in the following table.

[6] = tested on: Pseudomonas aeruginosa 130; assay: Bactericidal test (MIC), Pseudomonas aeruginosa 130; assay type: cell-based; conditions: (16) Pseudomonas aeruginosa 130
Source text: as §1

Rettgerella var. Tid-21 = assay: Bactericidal test (MIC), Rettgerella var. Tid-21; assay type: cell-based; conditions: (10) Rettgerella var. Tid-21; read-out: MIC
Source text: as §1

[7] = tested on: Pseudomonas aeruginosa 0-37; assay: Bactericidal test (MIC), Pseudomonas aeruginosa 0-37; assay type: cell-based; conditions: 037; (13) Pseudomonas aeruginosa 0-37
Source text: as §1

[8] = tested on: Enterobacter cloacae IF012937; assay: Bactericidal test (MIC), Enterobacter cloacae IF012937; assay type: cell-based; conditions: (8) Enterobacter cloacae IF012937
Source text: as §1

Serratia G-18 = assay: Bactericidal test (MIC), Serratia G-18; assay type: cell-based; conditions: G18; (11) Serratia G-18; read-out: MIC
Source text: as §1

[9] = tested on: Salmonella typhimurium G-20; assay: Bactericidal test (MIC), Salmonella typhimurium G-20; assay type: cell-based; conditions: Salmonella enterica; (4) Salmonella typhimurium G-20
Source text: as §1

[10] = tested on: Pseudomonas aeruginosa Tid-53; assay: Bactericidal test (MIC), Pseudomonas aeruginosa Tid-53; assay type: cell-based; conditions: TID53; (14) Pseudomonas aeruginosa Tid-53
Source text: as §1

[11] = tested on: Escherichia Coli NIHJ JC-2; assay: Bactericidal test (MIC), Escherichia Coli NIHJ JC-2; assay type: cell-based; conditions: NIHJJC2; (5) Escherichia Coli NIHJ JC-2
Source text: as §1

Enterobactor cloacae 147 = assay: Bactericidal test (MIC), Enterobactor cloacae 147; assay type: cell-based; conditions: (7) Enterobactor cloacae 147
Source text: as §1

[12] = tested on: Staphylococcus aureus 1248; assay: Bactericidal test (MIC), Staphylococcus aureus 1248; assay type: cell-based; conditions: (2) Staphylococcus aureus 1248; read-out: MIC
Source text: as §1

Morganella var. G-2 = assay: Bactericidal test (MIC), Morganella var. G-2; assay type: cell-based; conditions: VAR.G2; (9) Morganella var. G-2; read-out: MIC
Source text: as §1

[13] = tested on: Pseudomonas aeruginosa GN-315; assay: Bactericidal test (MIC), Pseudomonas aeruginosa GN-315; assay type: cell-based; conditions: GN315; (15) Pseudomonas aeruginosa GN-315
Source text: as §1

Bacillus subtilis = assay: Bactericidal test (MIC), Bacillus subtilis; assay type: cell-based; conditions: (3) Bacillus subtilis
Source text: as §1

CC(=O)Oc1ccc2oc(=O)c(C(=O)N[C@@H](C(=O)N[C@@H]3C(=O)N4[C@@H]3SC(C)(C)[C@@H]4C(=O)O)c3ccccc3)cc2c1 [Example 9, D(-)-α-(6-Acetoxycoumarin-3-carbonamido)benzylpenicillin]
MIC [1]: < 0.4 µg/mL
MIC [2]: 0.8 µg/mL (≈ 1.38 µM)
MIC [3]: < 0.4 µg/mL
fraction unbound [4]: 0.2
LD50 ([5]; Oral): > 4000 mg/kg
LD50 ([5]; ip, Intraabdominal): 2000 mg/kg
MIC [6]: < 0.4 µg/mL
MIC (Rettgerella var. Tid-21): 3.13 µg/mL (≈ 5.4 µM)
MIC [7]: 25 µg/mL (≈ 43.1 µM)
MIC [8]: 25 µg/mL (≈ 43.1 µM)
MIC (Serratia G-18): 25 µg/mL (≈ 43.1 µM)
MIC [9]: < 0.4 µg/mL
MIC [10]: 6.25 µg/mL (≈ 10.8 µM)
MIC [11]: < 0.4 µg/mL
MIC (Enterobactor cloacae 147): 3.13 µg/mL (≈ 5.4 µM)
MIC [12]: 3.13 µg/mL (≈ 5.4 µM)
MIC (Morganella var. G-2): 6.25 µg/mL (≈ 10.8 µM)
MIC [13]: 6.25 µg/mL (≈ 10.8 µM)
MIC (Bacillus subtilis): < 0.4 µg/mL

COc1cccc2cc(C(=O)N[C@@H](C(=O)N[C@@H]3C(=O)N4[C@@H]3SC(C)(C)[C@@H]4C(=O)O)c3ccc(O)cc3)c(=O)oc12 [Example 18, D(-)-α-(8-Methoxycoumarin-3-carbonamido)-p-hydroxylbenzylpenicillin]
MIC [1]: 0.8 µg/mL (≈ 1.41 µM)
MIC [2]: 0.8 µg/mL (≈ 1.41 µM)
MIC [3]: < 0.4 µg/mL
LD50 ([5]; Oral): > 4000 mg/kg
LD50 ([5]; ip, Intraabdominal): 2000 mg/kg
MIC [6]: 1.56 µg/mL (≈ 2.75 µM)
MIC (Rettgerella var. Tid-21): 3.13 µg/mL (≈ 5.51 µM)
MIC [7]: 12.5 µg/mL (≈ 22 µM)
MIC [8]: 3.13 µg/mL (≈ 5.51 µM)
MIC (Serratia G-18): 6.25 µg/mL (≈ 11 µM)
MIC [9]: < 0.4 µg/mL
MIC [10]: 3.13 µg/mL (≈ 5.51 µM)
MIC [11]: < 0.4 µg/mL
MIC (Enterobactor cloacae 147): 3.13 µg/mL (≈ 5.51 µM)
MIC [12]: 1.56 µg/mL (≈ 2.75 µM)
MIC (Morganella var. G-2): 3.13 µg/mL (≈ 5.51 µM)
MIC [13]: 3.13 µg/mL (≈ 5.51 µM)
MIC (Bacillus subtilis): < 0.4 µg/mL

CC1(C)S[C@@H]2[C@H](NC(=O)[C@H](NC(=O)c3cc4cc(Br)ccc4oc3=O)c3ccccc3)C(=O)N2[C@H]1C(=O)O [Example 3, D(-)-α-(6-Bromocoumarin-3-carbonamido)benzylpenicillin]
MIC [1]: 1.56 µg/mL (≈ 2.6 µM)
MIC [2]: 1.56 µg/mL (≈ 2.6 µM)
MIC [3]: < 0.4 µg/mL
fraction unbound [4]: 0.2
MIC [6]: 1.56 µg/mL (≈ 2.6 µM)
MIC (Rettgerella var. Tid-21): 6.25 µg/mL (≈ 10.4 µM)
MIC [7]: 25 µg/mL (≈ 41.6 µM)
MIC [8]: 25 µg/mL (≈ 41.6 µM)
MIC (Serratia G-18): 25 µg/mL (≈ 41.6 µM)
MIC [9]: < 0.4 µg/mL
MIC [10]: 6.25 µg/mL (≈ 10.4 µM)
MIC [11]: < 0.4 µg/mL
MIC (Enterobactor cloacae 147): 3.13 µg/mL (≈ 5.21 µM)
MIC [12]: 1.56 µg/mL (≈ 2.6 µM)
MIC (Morganella var. G-2): 6.25 µg/mL (≈ 10.4 µM)
MIC [13]: 6.25 µg/mL (≈ 10.4 µM)
MIC (Bacillus subtilis): < 0.4 µg/mL

CC1(C)S[C@@H]2[C@H](NC(=O)[C@H](NC(=O)c3cc4ccccc4oc3=O)c3ccc(O)cc3)C(=O)N2[C@H]1C(=O)O [Example 16, D(-)-α-(Coumarin-3-carbonamido)-p-hydroxybenzylpenicillin]
MIC [1]: 6.25 µg/mL (≈ 11.6 µM)
MIC [2]: 0.8 µg/mL (≈ 1.49 µM)
MIC [3]: < 0.4 µg/mL
fraction unbound [4]: 0.55
MIC [6]: 1.56 µg/mL (≈ 2.9 µM)
MIC (Rettgerella var. Tid-21): 1.56 µg/mL (≈ 2.9 µM)
MIC [7]: 25 µg/mL (≈ 46.5 µM)
MIC [8]: 25 µg/mL (≈ 46.5 µM)
MIC (Serratia G-18): 50 µg/mL (≈ 93 µM)
MIC [9]: < 0.4 µg/mL
MIC [10]: 6.25 µg/mL (≈ 11.6 µM)
MIC [11]: < 0.4 µg/mL
MIC (Enterobactor cloacae 147): 6.25 µg/mL (≈ 11.6 µM)
MIC [12]: 1.56 µg/mL (≈ 2.9 µM)
MIC (Morganella var. G-2): 12.5 µg/mL (≈ 23.3 µM)
MIC [13]: 3.13 µg/mL (≈ 5.82 µM)
MIC (Bacillus subtilis): < 0.4 µg/mL

CC1(C)S[C@@H]2[C@H](NC(=O)[C@H](NC(=O)c3cc4ccccc4oc3=O)c3ccccc3)C(=O)N2[C@H]1C(=O)O [Example 1, D(-)-α-(Coumarin-3-carbonamido)benzylpenicillin]
MIC [1]: < 0.4 µg/mL
MIC [2]: < 0.4 µg/mL
MIC [3]: < 0.4 µg/mL
LD50 ([5]; Oral): > 4000 mg/kg
MIC [6]: < 0.4 µg/mL
MIC (Rettgerella var. Tid-21): 1.56 µg/mL (≈ 2.99 µM)
MIC [7]: 12.5 µg/mL (≈ 24 µM)
MIC [8]: 6.25 µg/mL (≈ 12 µM)
MIC (Serratia G-18): 12.5 µg/mL (≈ 24 µM)
MIC [9]: < 0.4 µg/mL
MIC [10]: 3.13 µg/mL (≈ 6 µM)
MIC [11]: < 0.4 µg/mL
MIC (Enterobactor cloacae 147): 3.13 µg/mL (≈ 6 µM)
MIC [12]: 1.56 µg/mL (≈ 2.99 µM)
MIC (Morganella var. G-2): 3.13 µg/mL (≈ 6 µM)
MIC [13]: 1.56 µg/mL (≈ 2.99 µM)
MIC (Bacillus subtilis): < 0.4 µg/mL

CC1(C)S[C@@H]2[C@H](NC(=O)[C@H](NC(=O)c3cc4cc(Cl)ccc4oc3=O)c3ccccc3)C(=O)N2[C@H]1C(=O)O [Example 2, D(-)-α-(6-Chlorocoumarin-3-carbonamido)benzylpenicillin]
MIC [1]: 1.56 µg/mL (≈ 2.81 µM)
MIC [2]: 3.13 µg/mL (≈ 5.63 µM)
MIC [3]: < 0.4 µg/mL
fraction unbound [4]: 0.33
MIC [6]: 6.25 µg/mL (≈ 11.2 µM)
MIC (Rettgerella var. Tid-21): 12.5 µg/mL (≈ 22.5 µM)
MIC [7]: 50 µg/mL (≈ 89.9 µM)
MIC [8]: 25 µg/mL (≈ 45 µM)
MIC (Serratia G-18): 50 µg/mL (≈ 89.9 µM)
MIC [9]: < 0.4 µg/mL
MIC [10]: 25 µg/mL (≈ 45 µM)
MIC [11]: < 0.4 µg/mL
MIC (Enterobactor cloacae 147): 25 µg/mL (≈ 45 µM)
MIC [12]: 1.56 µg/mL (≈ 2.81 µM)
MIC (Morganella var. G-2): 12.5 µg/mL (≈ 22.5 µM)
MIC [13]: 25 µg/mL (≈ 45 µM)
MIC (Bacillus subtilis): < 0.4 µg/mL

Cc1cccc2cc(C(=O)N[C@@H](C(=O)N[C@@H]3C(=O)N4[C@@H]3SC(C)(C)[C@@H]4C(=O)O)c3ccccc3)c(=O)oc12 [Example 15, D(-)-α-(8-Methylcoumarin-3-carbonamido)benzylpenicillin]
MIC [1]: 6.25 µg/mL (≈ 11.7 µM)
MIC [2]: 12.5 µg/mL (≈ 23.3 µM)
MIC [3]: < 0.4 µg/mL
MIC [6]: 25 µg/mL (≈ 46.7 µM)
MIC (Rettgerella var. Tid-21): 50 µg/mL (≈ 93.4 µM)
MIC [7]: 200 µg/mL (≈ 373 µM)
MIC [8]: 100 µg/mL (≈ 187 µM)
MIC (Serratia G-18): 200 µg/mL (≈ 373 µM)
MIC [9]: < 0.4 µg/mL
MIC [10]: 100 µg/mL (≈ 187 µM)
MIC [11]: < 0.4 µg/mL
MIC (Enterobactor cloacae 147): 200 µg/mL (≈ 373 µM)
MIC [12]: 6.25 µg/mL (≈ 11.7 µM)
MIC (Morganella var. G-2): 100 µg/mL (≈ 187 µM)
MIC [13]: 200 µg/mL (≈ 373 µM)
MIC (Bacillus subtilis): < 0.4 µg/mL

COc1cccc2cc(C(=O)N[C@@H](C(=O)N[C@@H]3C(=O)N4[C@@H]3SC(C)(C)[C@@H]4C(=O)O)c3ccccc3)c(=O)oc12 [Example 6, D(-)-α-(8-Methoxycoumarin-3-carbonamido)benzylpenicillin]
MIC [1]: 0.8 µg/mL (≈ 1.45 µM)
MIC [2]: 0.8 µg/mL (≈ 1.45 µM)
MIC [3]: < 0.4 µg/mL
fraction unbound [4]: 0.42
LD50 ([5]; Oral): > 4000 mg/kg
LD50 ([5]; ip, Intraabdominal): 2000 mg/kg
MIC [6]: 1.56 µg/mL (≈ 2.83 µM)
MIC (Rettgerella var. Tid-21): 3.13 µg/mL (≈ 5.67 µM)
MIC [7]: 12.5 µg/mL (≈ 22.7 µM)
MIC [8]: 6.25 µg/mL (≈ 11.3 µM)
MIC (Serratia G-18): 6.25 µg/mL (≈ 11.3 µM)
MIC [9]: < 0.4 µg/mL
MIC [10]: 6.25 µg/mL (≈ 11.3 µM)
MIC [11]: < 0.4 µg/mL
MIC (Enterobactor cloacae 147): 3.13 µg/mL (≈ 5.67 µM)
MIC [12]: 0.8 µg/mL (≈ 1.45 µM)
MIC (Morganella var. G-2): 0.8 µg/mL (≈ 1.45 µM)
MIC [13]: 3.13 µg/mL (≈ 5.67 µM)
MIC (Bacillus subtilis): < 0.4 µg/mL
